Eight compounds from PubChem BioAssay (NCI) can be followed below.

Test systems include SF-539 CNS; RXF 393 renal; ACHN renal; SW-620 colon; SK-MEL-5 melanoma; NCI-H23 lung; U251 CNS; SK-MEL-2 melanoma; HCT-15 colon; MALME-3M melanoma; OVCAR-8 ovarian; HOP-92 NSCLC; A498 renal; SK-OV-3 ovarian; SNB-19 CNS; HT29 colon; NCI-H460 lung; M19-MEL melanoma.
Assay in all cases: NCI anticancer screen, dose series, 48 h

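Results reflect a 48-hour exposure of cells in 96-well plates to compound at five concentrations. TGI: concentration producing complete growth inhibition.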

In the case of `C[N+](C)(CCCCCC[N+](C)(C)CCCN1C(=O)c2cccc3cccc(c23)C1=O)CCCN1C(=O)c2cccc3cccc(c23)C1=O`, the TGI with SF-539 CNS, in the assay on RXF 393 renal, in the assay with ACHN renal, in the assay on SW-620 colon, in the assay on SK-MEL-5 melanoma and in the assay on NCI-H23 lung was > 100 µM in each case. Also, the TGI in the assay with U251 CNS, with SK-MEL-2 melanoma, with HCT-15 colon, in the assay with MALME-3M melanoma, with OVCAR-8 ovarian and in the assay with HOP-92 NSCLC was > 100 µM in each case. For the same compound, the TGI in the assay with A498 renal, in the assay on SK-OV-3 ovarian, in the assay on SNB-19 CNS, in the assay on HT29 colon and in the assay on NCI-H460 lung was > 100 µM each time.

`C/C(=C/C(=O)Nc1ccccc1)Nc1onc(C)c1C`: the TGI in the assay with SF-539 CNS, in the assay on RXF 393 renal, in the assay on SW-620 colon, in the assay with SK-MEL-5 melanoma, with NCI-H23 lung and in the assay with U251 CNS was > 100 µM throughout. Besides, the TGI in the assay with SK-MEL-2 melanoma, with M19-MEL melanoma, with HCT-15 colon, in the assay on MALME-3M melanoma, with OVCAR-8 ovarian and in the assay with HOP-92 NSCLC was > 100 µM throughout. Besides, the TGI in the assay with A498 renal, in the assay on SK-OV-3 ovarian, in the assay on SNB-19 CNS, in the assay on HT29 colon and in the assay with NCI-H460 lung was > 100 µM in each case.

Consider `Cc1c(O)c(=O)ccn1CCN`, for which the TGI in the assay with RXF 393 renal, in the assay with ACHN renal, in the assay with SW-620 colon, with NCI-H23 lung, with U251 CNS and in the assay with SK-MEL-2 melanoma was > 100 µM throughout. In addition, the TGI in the assay with M19-MEL melanoma, in the assay on HCT-15 colon, in the assay with MALME-3M melanoma, with OVCAR-8 ovarian, in the assay on HOP-92 NSCLC and in the assay on A498 renal was > 100 µM in each case. In addition, the TGI in the assay with SK-OV-3 ovarian, in the assay with SNB-19 CNS, in the assay with HT29 colon and in the assay with NCI-H460 lung was > 100 µM throughout.

As for `O=NN1C(c2ccccc2)CNC(=O)CC1c1ccccc1` (configuration not stated), the TGI in the assay with SF-539 CNS was 96.1 µM; with RXF 393 renal it was 81.1 µM; in the assay on SW-620 colon, > 100 µM; with SK-MEL-5 melanoma it was > 93.1 µM; with NCI-H23 lung, 97.9 µM; with U251 CNS, > 100 µM. Besides, the TGI with SK-MEL-2 melanoma was > 80 µM; in the assay with M19-MEL melanoma it was > 100 µM; in the assay with HCT-15 colon it was > 100 µM; with MALME-3M melanoma it was > 100 µM; in the assay with OVCAR-8 ovarian, > 100 µM; with HOP-92 NSCLC it was > 100 µM. In addition, the TGI in the assay on A498 renal was > 100 µM; with SK-OV-3 ovarian, > 89 µM; in the assay on SNB-19 CNS, > 93.2 µM; in the assay with HT29 colon, > 100 µM; in the assay with NCI-H460 lung, > 100 µM.

For the compound `O=S(O)CCCCCSSc1ccccc1`, the TGI with SF-539 CNS is 62.6 µM; in the assay with RXF 393 renal, 89.2 µM; in the assay on ACHN renal it was > 100 µM; in the assay with NCI-H23 lung, > 100 µM; in the assay with U251 CNS, 94.1 µM; in the assay on SK-MEL-2 melanoma, 53.3 µM. Besides, the TGI with M19-MEL melanoma, with MALME-3M melanoma, with A498 renal, in the assay with SK-OV-3 ovarian, in the assay with SNB-19 CNS and in the assay with HT29 colon was > 100 µM throughout. In addition, in the assay with NCI-H460 lung, the TGI was > 100 µM.

For `Nc1nc(Nc2ccc(Cl)c(Cl)c2)nc2nc[nH]c12`, the TGI was found to be 26.7 µM with SF-539 CNS; 20.1 µM in the assay with RXF 393 renal; 25.2 µM with ACHN renal; 41.6 µM with SW-620 colon; 27.7 µM with SK-MEL-5 melanoma; 34.9 µM in the assay with NCI-H23 lung. The TGI in the assay on U251 CNS was 36.5 µM; in the assay with SK-MEL-2 melanoma, 39.2 µM; in the assay on HCT-15 colon, 37.2 µM; with MALME-3M melanoma it was 32.5 µM; in the assay on OVCAR-8 ovarian, 28 µM; in the assay with HOP-92 NSCLC it was 33.5 µM. Also, the TGI in the assay on A498 renal is 21.7 µM; with SK-OV-3 ovarian it was 31.8 µM; in the assay on SNB-19 CNS, 32 µM; in the assay on HT29 colon, 30.6 µM; in the assay with NCI-H460 lung it was 34 µM.

Consider `O=C1C(Cl)N(c2c(Cl)cccc2Cl)C1c1c[nH]c2ccccc12` (configuration not stated), for which the TGI with SF-539 CNS, in the assay on RXF 393 renal, in the assay with SW-620 colon, in the assay with SK-MEL-5 melanoma, with NCI-H23 lung and in the assay on U251 CNS was > 100 µM throughout. Moreover, the TGI in the assay with SK-MEL-2 melanoma, in the assay on M19-MEL melanoma, in the assay with MALME-3M melanoma, in the assay with OVCAR-8 ovarian, in the assay with HOP-92 NSCLC and in the assay with SK-OV-3 ovarian was > 100 µM throughout. Besides, the TGI in the assay on SNB-19 CNS, with HT29 colon and in the assay on NCI-H460 lung was > 100 µM throughout.

In the case of `Cc1ccc(/C=C2\Sc3scc(-c4ccccc4)[n+]3C2=O)cc1`, the TGI in the assay on SF-539 CNS was > 60.6 µM; in the assay on RXF 393 renal it was 90.2 µM; in the assay with ACHN renal, 51.7 µM; in the assay on SW-620 colon, > 52.4 µM; with SK-MEL-5 melanoma, > 58.2 µM; in the assay on NCI-H23 lung it was 46.4 µM. The TGI in the assay on U251 CNS was 47.5 µM; with SK-MEL-2 melanoma, > 89.1 µM; in the assay with HCT-15 colon it was 50.8 µM; in the assay on OVCAR-8 ovarian, > 56.6 µM; in the assay with HOP-92 NSCLC, > 49.7 µM; with SK-OV-3 ovarian, > 67.6 µM. In addition, the TGI in the assay on SNB-19 CNS is > 72 µM; in the assay with HT29 colon, 56.9 µM; in the assay with NCI-H460 lung, 42.4 µM.
